From US20050215635A1, “Diarylheptanoid compounds and uses thereof” (priority 2004, published 2005)

Assays:
[1] = tested on: LPS induced NO production from mouse macrophage cells (RAW 264.7); experiment: Nitric oxide measurement (nitrite, Griess reagent) in LPS-treated RAW 264.7 cells; format: cell-based; settings: RAW 264.7, 24 hrs
Description: The mouse macrophage cells (RAW 264.7) were cultured in DMEM supplemented with 15% fetal bovine serum (FBS) and antibiotic and antimycotic mixture. The cell suspension of 50,000 cells/well was cultured in flat bottom microtitre plate in quadruplicate for 12 hrs. Thereafter, 100 μl of media was replaced with fresh medium containing either LPS (0.5 μg/ml) alone or LPS with various concentrations of HMP and further cultured for 24 hrs. The culture supernatant was collected at the end of culture for nitrite assay, which was used as a measure of NO production. Culture supernatant (100 μl) was mixed with equal volume of Griess reagent (SIGMA, MO, USA) and the absorbance was measured at 570 nm. The concentration of nitrite (μM) was calculated from standard curve drawn with known concentration of sodium nitrite dissolved in DMEM. The results are presented as mean ±SD of 4 replicates of one representative experiment and this experiment was repeated 5 times. For the NO assay, RAW 264.7 cells were treated with LPS (0.5 μg/ml) and/or various concentrations of HMP for 24 hrs and amount of nitrite in supernatant from each treatment group was measured using Griess reagent. Each data point represents mean+standard deviation (SD) of 5 replicates of one representative experiment of total 6 experiments.

[2] = Radical-scavenging activity by DPPH
Description: In this example, the 2,2-diphenyl-1-picrylhydrazyl (DPPH) method was used to explore the capacity of five isolated compounds of the invention to act as free radical scavengers. The DPPH assay has been extensively used to test the free radical scavenging ability of various chemicals (Brand-williams, W. et al., Wiss. Technol. 1995, 28, 25-30; Dinis, T. C. et al., Arch. Biochem. Biophys. 1994, 315, 161-169.)
This method was adapted from that of Brand-Williams, et al. (Brand-williams, W.; Cuvelier, M. E.; Berset, C. Lebensm. Wiss. Technol. 1995, 28, 25-30.). At least seven different concentrations were prepared for each purified compound. 25 μl pure compound solution and 975 μL DPPH solution (63.4 μM) were mixed together and left in the dark for 30 min. Each sample was triplicated and the values were averaged. The absorbance of the samples was measured at 515 nm against methanol solution without DPPH as the blank reference. The absorbance was measured every 30 min until the reaction reached a plateau. The reaction kinetics were then plotted using the above data and the percentage of DPPH remaining at the steady state was obtained. IC50 values were determined by extrapolation from linear regression analysis.
DPPH, 2,2-Diphenyl-1-picrylhydrazyl (DPPH.), is a stable radical in methanol solution. In its radical form, DPPH. absorbs at 515 nm, but the absorption ceases upon reduction by an antioxidant (AH) or a radical species (R.) (Brand-williams, W.; Cuvelier, M. E.; Berset, C. Lebensm. Wiss. Technol. 1995, 28, 25-30.). The concentration of tested chemicals needed to decrease the initial DPPH. concentration by 50% (IC50) is a parameter widely used to measure the antioxidant potential (Kanner, J.; Frankel, E.; German, B.; Kinsella, J. e. J. Agric. Food Chem. 1994, 42, 64-69, Vinson, J. A.; Dabbagh, Y. A.; Serry, M. M. J. Agric. Food Chem. 1995a, 43,2800-2802.). The lower the IC50, the higher the free radical scavenging power.

COX-2 protein expression = experiment: Western blotting of COX-2 protein expression in RAW 264.7 cells; format: cell-based, mouse; settings: HMP 12.5 and 25 μM + LPS (0.5 μg/ml), RAW 264.7, 18 hrs
Description: FIG. 3. Inhibition of LPS induced iNOS and COX-2 protein expression by HMP. RAW 264.7 cells were treated with various concentrations of HMP and/or LPS (0.5 μg/ml) for 18 h. Total-cell lysate (40 μg) was resolved in 8-10% SDS-PAGE then transferred to PVDF membrane and detected with specific antibodies as described in Section 6. This experiment was repeated 4 times with similar observations. Lane-1, Control (without any treatment); 2, LPS (0.5 μg/ml); 3, LPS and HMP 25 μM; 4, LPS and HMP-12.5 μM.
At indicated time points, cells were rapidly washed with ice-cold PBS and solubilized in cold lysis buffer containing 10 mM Tris-base, 5 mM EDTA, 50 mM NaCl, 1% Triton X-100, 5 mM phenylmethylsulfonyl fluoride (PMSF), 2 mM sodium orthovanadate, 10 μg/ml leupeptin, 25 μg/ml aprotinin, 1 mM sodium pyrophosphate, and 20% glycerol. […]
Equal amount of protein (40 μg) from each sample was loaded on SDS-polyacrylamide electrophoresis gel (8 and 10% separating gels for iNOS and p42/44^MAPK, respectively) and resolved for 1.5 h at 120 V in buffer containing 95 mM Tris-HCl, 960 mM glycine, and 0.5% SDS. […] Specific bands were detected by enhanced chemiluminescence's detection system (Amersham-Pharmacia biotech, NJ, USA) and the membrane was exposed to X-ray film. […]

## COc1cc(CC/C=C/C(=O)CCc2ccccc2)ccc1O [AO-4, 7-(4″-hydroxy-3″-methoxyphenyl)-1-phenyl-hept-4-en-3-one]
[1]; HMP 6.25 μM + LPS (0.5 μg/ml)
  Nitrite: 14.54 ± 2.5 µM
[1]; HMP 6.25 μM alone
  Nitrite: 3.66 ± 1.08 µM
[1]; HMP 12.5 μM + LPS (0.5 μg/ml)
  Nitrite: 13.75 ± 2.65 µM
[1]; HMP 12.5 μM alone
  Nitrite: 3.88 ± 1.14 µM
[1]; HMP 25 μM + LPS (0.5 μg/ml)
  Nitrite: 9.95 ± 1.41 µM
[1]; HMP 25 μM alone
  Nitrite: 3.86 ± 0.97 µM
[1]; HMP 6.25-25 μM + LPS (0.5 μg/ml)
  LPS induced production of nitric oxide (in words): significantly inhibited by HMP in a dose dependent manner
[1]; HMP alone
  NO production, HMP alone (in words): no effect on NO production
[2]; DPPH 63.4 μM in methanol, absorbance at 515 nm, steady state, read-out: IC50 (μM) of Diarylheptanoids in Scavenging DPPH Free Radicals
  IC50: 13.7 µM
[2]; DPPH assay
  free radical scavenging, DPPH data (in words): very good free radical scavengers
COX-2 protein expression
  LPS induced COX-2 protein expression (Western blot, in words): markedly inhibited
